{
  "source": "paper PMC7664879",
  "about": "“Discovery of 12O—A Novel Oral Multi-Kinase Inhibitor for the Treatment of Solid Tumor” (Molecules, 2020)",
  "key": {"c-Kit(h)": {"molecular_target": "T1, c-Kit(h) (Homo sapiens, UniProt P10721)", "T1 construct": "purchased Eurofins (KinaseProfiler service)", "experiment": "Kinase inhibition assay (Eurofins KinaseProfiler)", "assay_type": "biochemical", "conditions": "ATP at Km", "protocol": "(§1) Kinase inhibition profiles were determined using KinaseProfiler services provided by Eurofins, and ATP concentrations used are the Km of corresponding kinases.\nc-Kit (h) was incubated with 8 mM MOPS pH 7.0, 0.2 mM EDTA, 10 mM MnCl2, 0.1 mg/mL poly(Glu, Tyr) 4:1, 10 mM MgAcetate and [gamma-33P]-ATP.\n(§2) All the reactions above were initiated by the addition of the Mg/ATP mix. After incubation for 40 min at room temperature, the reaction was stopped by the addition of phosphoric acid to a concentration of 0.5%. An amount of 10 µL of the reaction was then spotted onto a P30 filtermat and washed four times for 4 min in 0.425% phosphoric acid and once in methanol prior to drying and scintillation counting."}, "SiHa xenograft": {"system": "SiHa xenograft", "experiment": "SiHa xenograft mouse model, oral dosing", "assay_type": "in vivo", "conditions": "for Tumor growth inhibition (TGI): SiHa xenograft mice, every day", "protocol": "Based on a desirable set of in vitro properties, 12O was finally selected for further in vivo evaluation. We proceeded to test the antitumor efficacy of 12O in SiHa xenograft mice. Animals were orally given three doses (5, 10, and 20 mg Kg^−1) of 12O, one dose (20 mg Kg^−1) of cisplatin (positive control), or vehicle (control) every day. […] Of note, In Figure 5c, an obvious decrease in tumor size was also observed at the end of observation. The average tumor weight (Figure 5d) of the 12O-treated group was less than that of cisplatin. HE staining was further performed to identify the efficacy of 12O (Figure 5e). […] Additional kinase activities of 12O intimately associated with the growth, survival, and metastasis in tumor cells, may contribute to the antitumor activity, but may also cause side effects. Multi-target kinase inhibitor extensively used in clinic cancer therapy, while hampered by associated adverse reactions and side-effect. Thus, further evidence is needed. An in-depth study of compound 12O is ongoing in our laboratory and will be reported in due course.\nAll animal studies were conducted under the approval of the Experimental Animal Management Committee of Nankai University (No. NKUEC20190228). Six- to eight-week-old female BALB/c nude mice were purchased from Beijing HFK Bioscience Company. Mice were fed in an SPF-level laboratory animal room. The mice were kept in independent ventilation cages with autoclaved corncobs at the bottom of the cage as bedding. The dimensions of the cages were 390 × 180 × 180 mm. Environmental factors: Average air temperature ranged from 20 to 26 °C with average relative air humidity ranging from 40 to 70%. Noise was below 60 decibels. Ventilation times were more than 15 times/hour. Air velocity was 0.1~0.2m/s. The ammonia concentration was below 14/(mg/m³). Working illumination was 150~300LX and animal illumination was 15~20LX. The nutritional components of mouse food include: water content: ≤10%, crude protein: ≥18%, crude fat: ≥4%, crude fiber: ≥5%, minerals: ≥4%, calcium: 1.0–1.8%, Phosphorus: 0.6-1.2%. The water that mice drink is sterilized by the animal drinking system.\nCells SiHa were harvested during the exponential-growth phase, washed 3 times with serum-free medium, followed by resuspension at a concentration of 2 × 10^6 per mL. A total of 100 μL of cell suspension was injected into SCID mice subcutaneously. After the tumors had grown to 100−150 mm^3, all the mice were randomized into 5 groups (5 mice for each group, 25 mice total). The mice were treated daily via oral gavage administration with 12O (5, 10, or 20 mg kg^−1 d^−1), cisplatin (20 mg kg^−1 d^−1), or vehicle. […] Mice were monitored for side effects every day. Body weights and tumor sizes were determined every other day and volume was also observed. At the end-point of the study, all mice had survived. Mice were euthanized and the subcutaneous tumor tissues were stripped and collected. Tumor measurements were calculated using a digital vernier caliper, and the volumes were determined using the following calculation: (short^2) × long × 0.5. Inhibition rate of tumor growth was calculated using the following formula: 100 × {1 − [(tumor volume final-tumor volume initial) for 12O-treated group]/ [(tumor volume final-tumor volume initial) for the vehicle-treated group]} [23]."}, "CDK9/cyclin T1(h)": {"molecular_target": "T2, CDK9/cyclin T1(h) (Homo sapiens, UniProt P50750)", "T2 construct": "purchased Eurofins (KinaseProfiler service)", "T2 sequence (P50750 whole entry)": "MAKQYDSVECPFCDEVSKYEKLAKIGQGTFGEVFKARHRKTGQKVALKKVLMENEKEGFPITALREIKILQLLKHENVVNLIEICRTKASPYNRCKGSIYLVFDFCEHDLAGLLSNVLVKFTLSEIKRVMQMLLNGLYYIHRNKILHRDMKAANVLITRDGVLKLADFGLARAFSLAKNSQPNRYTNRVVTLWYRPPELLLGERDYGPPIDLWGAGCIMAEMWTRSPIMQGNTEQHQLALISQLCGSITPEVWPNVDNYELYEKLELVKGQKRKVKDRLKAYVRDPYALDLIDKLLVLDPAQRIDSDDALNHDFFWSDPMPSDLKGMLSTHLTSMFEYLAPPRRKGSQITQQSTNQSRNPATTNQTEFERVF", "T2 sequence (O60563 whole entry partner)": "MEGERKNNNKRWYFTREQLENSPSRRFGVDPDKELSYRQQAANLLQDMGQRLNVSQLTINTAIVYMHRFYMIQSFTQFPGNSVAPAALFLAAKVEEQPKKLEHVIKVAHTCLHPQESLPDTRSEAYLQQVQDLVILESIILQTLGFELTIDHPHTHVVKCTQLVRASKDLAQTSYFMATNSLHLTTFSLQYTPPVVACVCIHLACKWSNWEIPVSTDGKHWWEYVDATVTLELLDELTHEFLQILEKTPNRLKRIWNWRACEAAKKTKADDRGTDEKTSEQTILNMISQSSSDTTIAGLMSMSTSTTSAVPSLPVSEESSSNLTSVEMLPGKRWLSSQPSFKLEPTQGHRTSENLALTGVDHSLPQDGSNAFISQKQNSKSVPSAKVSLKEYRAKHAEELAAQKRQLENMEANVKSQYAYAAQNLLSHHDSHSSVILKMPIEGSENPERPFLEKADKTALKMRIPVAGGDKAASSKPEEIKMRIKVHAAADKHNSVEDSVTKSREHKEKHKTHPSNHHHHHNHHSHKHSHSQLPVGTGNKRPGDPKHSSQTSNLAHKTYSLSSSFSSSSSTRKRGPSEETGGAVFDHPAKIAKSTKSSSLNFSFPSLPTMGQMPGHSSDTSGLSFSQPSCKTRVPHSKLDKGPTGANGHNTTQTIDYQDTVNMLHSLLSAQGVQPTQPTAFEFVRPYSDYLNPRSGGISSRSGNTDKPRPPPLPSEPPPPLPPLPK", "experiment": "Kinase inhibition assay (Eurofins KinaseProfiler)", "assay_type": "biochemical", "conditions": "ATP at Km", "protocol": "as §1\nCDK9/cyclinT1 (h) was incubated with 8 mM MOPS pH 7.0, 0.2 mM EDTA, 100 uM […], 10 mM MgAcetate and [gamma-33P]-ATP (specific activity and concentration as required).\nas §2"}, "CDK7/cyclinH/MAT1(h)": {"molecular_target": "T3, CDK7/cyclinH/MAT1(h) (Homo sapiens, UniProt P50613)", "T3 construct": "purchased Eurofins (KinaseProfiler service)", "experiment": "Kinase inhibition assay (Eurofins KinaseProfiler)", "assay_type": "biochemical", "conditions": "ATP at Km", "protocol": "as §1\nCDK7/cyclinH/MAT1 (h) was incubated with 8 mM MOPS pH 7.0, 0.2 mM EDTA, 500 uM peptide, 10 mM MgAcetate and [gamma-33P]-ATP (specific activity and concentration as required).\nas §2"}, "Abl(h)": {"molecular_target": "T4, Abl(h) (Homo sapiens, UniProt P00519)", "T4 construct": "purchased Eurofins (KinaseProfiler service)", "experiment": "Kinase inhibition assay (Eurofins KinaseProfiler)", "assay_type": "biochemical", "conditions": "ATP at Km", "protocol": "as §1\n(§3) Flt1 (h) was incubated with 8 mM MOPS pH 7.0, 0.2 mM EDTA, 250 uM KKKSPGEYVNIEFG, 10 mM MgAcetate and [g- 33P]-ATP; Flt3 (h) [Abl (h)] was incubated with 8 mM MOPS pH 7.0, 0.2 mM EDTA, 50 uM EAIYAAPFAKKK, 10 mM MgAcetate and [gamma-33P]- ATP; Flt4 (h) was incubated with 8 mM MOPS pH 7.0, 0.2 mM EDTA, 500 uM GGEEEEYFELVKKKK, 10 mM MgAcetate and [gamma-33P]-ATP.\nas §2"}, "FLT1 (VEGFR1)": {"molecular_target": "T5, FLT1 (VEGFR1) (Homo sapiens, UniProt P17948)", "T5 construct": "purchased Eurofins (KinaseProfiler service)", "T5 sequence (P17948 27-1338)": "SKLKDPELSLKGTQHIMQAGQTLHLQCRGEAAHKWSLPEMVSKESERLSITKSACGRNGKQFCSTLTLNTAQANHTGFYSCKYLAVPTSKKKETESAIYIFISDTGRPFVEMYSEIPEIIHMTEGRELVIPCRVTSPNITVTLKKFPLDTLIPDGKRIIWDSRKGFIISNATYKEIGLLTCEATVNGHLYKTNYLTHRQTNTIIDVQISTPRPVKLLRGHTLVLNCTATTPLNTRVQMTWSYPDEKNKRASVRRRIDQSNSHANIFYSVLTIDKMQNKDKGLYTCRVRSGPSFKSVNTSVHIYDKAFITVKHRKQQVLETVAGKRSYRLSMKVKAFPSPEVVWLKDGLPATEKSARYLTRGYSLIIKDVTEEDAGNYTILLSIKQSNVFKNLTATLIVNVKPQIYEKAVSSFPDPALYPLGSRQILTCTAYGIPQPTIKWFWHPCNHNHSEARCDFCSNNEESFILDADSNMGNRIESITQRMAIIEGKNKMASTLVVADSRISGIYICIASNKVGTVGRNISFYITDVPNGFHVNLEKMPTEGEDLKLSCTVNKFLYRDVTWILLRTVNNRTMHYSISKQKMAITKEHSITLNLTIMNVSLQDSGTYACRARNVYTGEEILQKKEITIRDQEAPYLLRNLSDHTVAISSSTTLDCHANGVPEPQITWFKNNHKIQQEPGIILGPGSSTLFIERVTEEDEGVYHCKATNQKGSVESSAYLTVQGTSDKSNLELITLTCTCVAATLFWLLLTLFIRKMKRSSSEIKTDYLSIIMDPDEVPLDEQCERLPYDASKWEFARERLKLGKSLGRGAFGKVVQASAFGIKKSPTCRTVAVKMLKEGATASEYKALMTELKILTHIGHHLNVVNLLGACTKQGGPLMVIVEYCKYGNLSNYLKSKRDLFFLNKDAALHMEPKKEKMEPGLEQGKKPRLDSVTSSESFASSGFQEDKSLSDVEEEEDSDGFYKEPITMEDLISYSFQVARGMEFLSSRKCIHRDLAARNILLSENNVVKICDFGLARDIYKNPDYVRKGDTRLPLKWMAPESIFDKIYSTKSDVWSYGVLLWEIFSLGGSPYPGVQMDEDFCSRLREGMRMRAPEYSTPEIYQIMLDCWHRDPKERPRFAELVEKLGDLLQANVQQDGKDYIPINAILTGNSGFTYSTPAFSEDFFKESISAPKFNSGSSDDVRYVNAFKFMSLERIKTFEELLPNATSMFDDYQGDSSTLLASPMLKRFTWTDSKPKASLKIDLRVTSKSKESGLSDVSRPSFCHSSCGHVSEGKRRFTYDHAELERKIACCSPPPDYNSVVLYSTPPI", "experiment": "Kinase inhibition assay (Eurofins KinaseProfiler)", "assay_type": "biochemical", "conditions": "ATP at Km", "protocol": "as §1, §3, §2"}, "FLT3(h)": {"molecular_target": "T6, FLT3(h) (Homo sapiens, UniProt P36888)", "T6 construct": "purchased Eurofins (KinaseProfiler service)", "T6 sequence (P36888 27-993)": "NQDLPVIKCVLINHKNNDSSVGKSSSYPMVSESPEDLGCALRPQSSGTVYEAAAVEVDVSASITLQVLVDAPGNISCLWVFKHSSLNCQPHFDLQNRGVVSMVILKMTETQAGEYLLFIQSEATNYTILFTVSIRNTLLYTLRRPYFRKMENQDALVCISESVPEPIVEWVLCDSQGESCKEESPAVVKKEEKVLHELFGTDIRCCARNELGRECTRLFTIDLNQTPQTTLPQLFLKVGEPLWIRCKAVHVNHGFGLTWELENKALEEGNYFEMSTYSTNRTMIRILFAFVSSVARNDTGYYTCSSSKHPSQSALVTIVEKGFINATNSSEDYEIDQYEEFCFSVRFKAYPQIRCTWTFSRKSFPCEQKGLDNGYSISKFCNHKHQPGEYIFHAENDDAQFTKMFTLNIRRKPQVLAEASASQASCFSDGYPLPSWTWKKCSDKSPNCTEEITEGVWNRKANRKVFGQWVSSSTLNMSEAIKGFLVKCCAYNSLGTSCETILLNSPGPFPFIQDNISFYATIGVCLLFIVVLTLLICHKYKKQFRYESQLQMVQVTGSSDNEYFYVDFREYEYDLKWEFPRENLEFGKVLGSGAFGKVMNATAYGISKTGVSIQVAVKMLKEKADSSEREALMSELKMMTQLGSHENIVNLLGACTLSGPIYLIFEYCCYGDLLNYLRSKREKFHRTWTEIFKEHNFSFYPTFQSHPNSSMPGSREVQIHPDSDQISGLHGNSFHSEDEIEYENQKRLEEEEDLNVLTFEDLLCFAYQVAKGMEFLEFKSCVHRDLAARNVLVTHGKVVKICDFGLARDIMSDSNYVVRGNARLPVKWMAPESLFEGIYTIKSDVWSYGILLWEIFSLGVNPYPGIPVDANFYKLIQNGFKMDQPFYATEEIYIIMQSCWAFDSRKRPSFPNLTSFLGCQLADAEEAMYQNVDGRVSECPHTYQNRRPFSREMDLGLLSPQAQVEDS", "experiment": "Kinase inhibition assay (Eurofins KinaseProfiler)", "assay_type": "biochemical", "conditions": "ATP at Km", "protocol": "as §1, §3, §2"}, "FLT4 (VEGFR3)": {"molecular_target": "T7, FLT4 (VEGFR3) (Homo sapiens, UniProt P35916)", "T7 construct": "purchased Eurofins (KinaseProfiler service)", "T7 sequence (P35916 25-1363)": "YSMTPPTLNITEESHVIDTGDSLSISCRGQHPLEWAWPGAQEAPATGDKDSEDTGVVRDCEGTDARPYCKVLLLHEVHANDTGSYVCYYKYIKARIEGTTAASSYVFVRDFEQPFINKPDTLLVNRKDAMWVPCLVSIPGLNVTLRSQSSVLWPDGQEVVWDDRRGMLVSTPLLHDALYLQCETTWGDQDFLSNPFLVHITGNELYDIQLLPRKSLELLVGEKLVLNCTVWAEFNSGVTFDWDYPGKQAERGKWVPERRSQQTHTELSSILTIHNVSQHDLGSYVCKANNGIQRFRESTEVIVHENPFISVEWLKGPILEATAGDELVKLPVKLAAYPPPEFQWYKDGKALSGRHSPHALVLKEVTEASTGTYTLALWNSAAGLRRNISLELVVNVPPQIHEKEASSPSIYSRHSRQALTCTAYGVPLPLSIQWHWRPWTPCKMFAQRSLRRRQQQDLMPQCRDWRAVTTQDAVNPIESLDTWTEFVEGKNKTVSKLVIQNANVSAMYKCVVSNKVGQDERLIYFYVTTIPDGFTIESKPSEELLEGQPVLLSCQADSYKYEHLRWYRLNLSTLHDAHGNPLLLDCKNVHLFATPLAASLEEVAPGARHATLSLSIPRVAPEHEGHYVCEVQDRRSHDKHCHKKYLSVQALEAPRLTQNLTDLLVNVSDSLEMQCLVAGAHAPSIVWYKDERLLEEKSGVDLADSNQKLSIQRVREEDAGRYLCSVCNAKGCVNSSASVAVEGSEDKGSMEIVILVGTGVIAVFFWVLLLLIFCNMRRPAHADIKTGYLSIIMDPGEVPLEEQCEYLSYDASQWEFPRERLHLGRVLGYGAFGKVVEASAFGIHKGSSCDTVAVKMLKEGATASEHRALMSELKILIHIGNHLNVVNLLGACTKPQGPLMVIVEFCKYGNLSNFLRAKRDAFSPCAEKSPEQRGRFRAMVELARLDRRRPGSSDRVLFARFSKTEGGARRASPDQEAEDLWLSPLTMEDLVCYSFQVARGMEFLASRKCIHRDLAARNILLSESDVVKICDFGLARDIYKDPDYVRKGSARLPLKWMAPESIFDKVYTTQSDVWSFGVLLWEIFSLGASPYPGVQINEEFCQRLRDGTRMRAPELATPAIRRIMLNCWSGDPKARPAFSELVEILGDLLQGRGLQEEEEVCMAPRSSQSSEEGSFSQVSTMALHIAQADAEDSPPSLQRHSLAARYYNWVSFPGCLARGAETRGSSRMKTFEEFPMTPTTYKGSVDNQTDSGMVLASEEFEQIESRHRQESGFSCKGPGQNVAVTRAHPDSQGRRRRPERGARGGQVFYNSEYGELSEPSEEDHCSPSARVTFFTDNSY", "experiment": "Kinase inhibition assay (Eurofins KinaseProfiler)", "assay_type": "biochemical", "conditions": "ATP at Km", "protocol": "as §1, §3, §2"}, "KDR (VEGFR2)": {"molecular_target": "T8, KDR (VEGFR2) (Homo sapiens, UniProt P35968)", "T8 construct": "purchased Eurofins (KinaseProfiler service)", "experiment": "Kinase inhibition assay (Eurofins KinaseProfiler)", "assay_type": "biochemical", "conditions": "ATP at Km", "protocol": "as §1\nKDR (h) was incubated with 8 mM MOPS pH 7.0, 0.2 mM EDTA, 0.33 mg/mL myelin basic protein, 10 mM MgAcetate and [gamma-33P]-ATP.\nas §2"}, "FGFR1(h)": {"molecular_target": "T9, FGFR1(h) (Homo sapiens, UniProt P11362)", "T9 construct": "purchased Eurofins (KinaseProfiler service)", "experiment": "Kinase inhibition assay (Eurofins KinaseProfiler)", "assay_type": "biochemical", "conditions": "ATP at Km", "protocol": "as §1\nFGFR1 (h) was incubated with 8 mM MOPS pH 7.0, 0.2 mM EDTA, 250 uM KKKSPGEYVNIEFG, 10 mM MgAcetate and [gamma-33P]-ATP.\nas §2"}},
  "note": "pIC50: −log10 of the molar value.",
  "data": [
    {"smiles": "CC(C)n1nnc2ccc(-c3nc(Nc4ccc(CNC(=O)C5(C(=O)Nc6ccccc6)CC5)cc4)ncc3F)cc21", "note": "[12O]", "values": [
      {"measurement": "inhibition at 1 µM", "setting": "c-Kit(h)", "result": 15, "unit": "%"},
      {"measurement": "Tumor growth inhibition (TGI)", "setting": "SiHa xenograft; 5 mg/kg oral", "result": 51.25, "unit": "%"},
      {"measurement": "Tumor growth inhibition (TGI)", "setting": "SiHa xenograft; 10 mg/kg oral", "result": 65.52, "unit": "%"},
      {"measurement": "Tumor growth inhibition (TGI)", "setting": "SiHa xenograft; 20 mg/kg oral", "result": 79.29, "unit": "%"},
      {"measurement": "toxicity in treated mice (body weight)", "setting": "SiHa xenograft; SiHa xenograft mice, 5, 10 and 20 mg/kg oral daily", "result": "without obvious toxicity"},
      {"measurement": "inhibition at 1 µM", "setting": "CDK9/cyclin T1(h); 1 µM", "result": 100, "unit": "%"},
      {"measurement": "pIC50", "setting": "CDK9/cyclin T1(h)", "result": 8.05},
      {"measurement": "inhibition at 1 µM", "setting": "CDK7/cyclinH/MAT1(h)", "result": 53, "unit": "%"},
      {"measurement": "inhibition at 1 µM", "setting": "Abl(h)", "result": 31, "unit": "%"},
      {"measurement": "inhibition at 1 µM", "setting": "FLT1 (VEGFR1)", "result": 50, "unit": "%"},
      {"measurement": "inhibition at 1 µM", "setting": "FLT3(h); 1 µM", "result": 98, "unit": "%"},
      {"measurement": "pIC50", "setting": "FLT3(h)", "result": 7.62},
      {"measurement": "inhibition at 1 µM", "setting": "FLT4 (VEGFR3); 1 µM", "result": 95, "unit": "%"},
      {"measurement": "pIC50", "setting": "FLT4 (VEGFR3)", "result": 7.17},
      {"measurement": "inhibition at 1 µM", "setting": "KDR (VEGFR2)", "result": 81, "unit": "%"},
      {"measurement": "inhibition at 1 µM", "setting": "FGFR1(h)", "result": -23, "unit": "%"}
    ]}
  ]
}
